The target in experiment [1] is T1, Endoribonuclease toxin MazF (Escherichia coli K-12, UniProt P0AE70).
T1 sequence (P0AE70 whole entry): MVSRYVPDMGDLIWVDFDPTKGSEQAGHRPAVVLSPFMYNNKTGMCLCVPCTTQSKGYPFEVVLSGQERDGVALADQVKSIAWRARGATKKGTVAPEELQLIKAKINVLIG
In words: activation of MazEF endoribonuclease cleavage – biochemical, fluorescence, single-stranded RNA substrate, uHTS hits, dose response (AID 588481). The experiment is classed as functional.

In a further experiment the target is Beta Lactamase (Pseudomonas aeruginosa, UniProt Q932Y6). Kind of experiment: BLA reporter interference, concentration series – BLA reporter cells, FRET fluorescence, artefact control for TLR9-MyD88 binding inhibitor project, dose response (AID 588341).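 Note: cell based assay in CHO-K1 cells stably expressing beta-lactamase.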 Format: cell-based.
In experiment [2] the target is T1, Endoribonuclease toxin MazF. In words: substrate-only fluorescence increase artefacts – biochemical, single-stranded RNase substrate, counter-screen for MazEF activator project, dose response (AID 588502). The experiment is classed as functional. (In general: Counterscreens check selectivity or assay interference.)
The test system of another experiment is CHO. Kind of experiment: CHO cell viability loss, potency – luminescence, cytotoxicity control for TLR9-MyD88 binding inhibitor project, dose response (AID 588339).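 Note: CHO cells stably coexpressing TLR9 and MyD88 fusions from primary screen; compound exposure lasted 48 hours before viability readout.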 The experiment is classed as functional, cell-based, hamster. The following applies: Cricetulus griseus.
Experiment [3] can be described thus: cAMP pathway inhibition in counterscreen cell line – TR-FRET cAMP detection, counter-screen for MC4R biased antagonist project, dose response (AID 602305).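 Note: U2OS cells stimulated with forskolin near its EC80 as the cAMP inducer; potency is for inhibition of forskolin-stimulated cAMP signaling.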 Format: functional, cell-based.
Experiment [4] in a line: viability of HCT116 lacking mutant beta-catenin – cell-based, human colon tumor, dose response (AID 1045).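 Note: HCT116 colon tumor cells with beta catenin knocked out; cells exposed to compound for 60 hours.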 The experiment is classed as functional.
Another experiment addresses Melanocortin receptor 4 (Homo sapiens, UniProt P32245). Kind of experiment: inhibitors of MC4R cAMP signaling – cell-based, TR-FRET, biased antagonists, dose response (AID 602298).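 Note: antagonist potency against agonist-stimulated cAMP production.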 The experiment is classed as functional. (Time-resolved FRET reads energy transfer from a long-lived donor to a nearby acceptor.)
In experiment [5] the target is Dual specificity tyrosine-phosphorylation-regulated kinase 1A (Rattus norvegicus, UniProt Q63470). The experiment is classed as biochemical, Homo sapiens.
Experiment [6] deals with Glycogen synthase kinase-3 beta (Homo sapiens, UniProt P49841). In words: Inhibition of Human GSK-3 beta Activity Measured in Biochemical System Using Microfluidics - 2063-05_Inhibitor_Dose_DryPowder_Activity_Set2. [Related pubchem assays (depositor defined):AID2709].
Experiment [7] has as its target Dual specificity protein kinase CLK1 (Homo sapiens, UniProt P49759). Kind of experiment: inhibition of human CLK1 activity – biochemical, cherry-picked samples, selectivity assay for Dyrk1A inhibitor project, dose response (AID 588811).
The nature of experiment [8]: viability of PTEN-deleted HCT116 cells – cell-based, HCT116 PTEN knockout, dose response (AID 1047).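 Note: HCT116 colon tumor cells with PTEN knocked out; cells exposed to compound for 60 hours before readout.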 The experiment is classed as functional.
The target in experiment [9] is Glycogen synthase kinase-3 alpha (Homo sapiens, UniProt P49840). In words: Inhibition of Human GSK-3 alpha Activity Measured in Biochemical System Using Microfluidics - 2063-06_Inhibitor_Dose_DryPowder_Activity_Set2. [Related pubchem assays (depositor defined):AID2709].
Experiment [10] concerns the target Phosphorylase b kinase gamma catalytic chain, liver/testis isoform (Homo sapiens, UniProt P15735). The experiment is classed as functional.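 Note: PHKG2 measured as one member of a kinome-wide kinase panel.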
Experiment [11] concerns BJ. Kind of experiment: BJ-TERT fibroblast viability loss – cell-based, RAS-independent, luminescence, dose response (AID 1933). The following applies: Homo sapiens. Format: functional.
The nature of experiment [12]: DRD fibroblast viability loss – cell-based, non-viral oncogenic, luminescence, dose response (AID 1934). Format: functional. Particulars: Homo sapiens.
For experiment [13], the system named is BJ. Kind of experiment: cells. The following applies: Homo sapiens. The experiment is classed as functional, cell-based.
The test system of experiment [14] is BJ. Kind of experiment: BJ-TERT-LT-ST fibroblast viability loss – cell-based, RAS-independent, luminescence, dose response (AID 1935).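 Note: BJ fibroblasts immortalized with TERT plus LT and ST oncogenes.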 Particulars: Homo sapiens. Format: functional.
Experiment [15] concerns BJ. Kind of experiment: growth inhibition of engineered Ras-driven BJ cells – cell-based, alamar blue fluorescence, cherrypicked samples, dose response (AID 2631).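 Note: confirmatory dose-response assay in RAS-dependent BJ fibroblasts engineered with TERT, LT and ST, with cytotoxicity read by fluorescence.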 Format: functional. The following applies: Homo sapiens. A general note: Alamar Blue is a resazurin reagent that responds to reducing activity.
Experiment [16] relates to INS1. In words: suppression of NO production in INS-1E cells – cell-based, Griess absorbance, dry powder, set 2, dose response (AID 488868). The experiment is classed as functional. Particulars: Rattus norvegicus.
Experiment [17] relates to INS1. In words: beta-cell survival under cytokine stress – INS-1E, ATP luminescence, dry powder, dose response (AID 488844). Format: functional, cell-based. Particulars: Rattus norvegicus.

The structures appear in SMILES notation. Calls of active or inactive are those of the source.

Here are results for five compounds from ChEMBL document CHEMBL1201862, “PubChem BioAssay data set” (2004).

Broadly, the EC50 is the concentration needed to bring the measured effect to its halfway point. Broadly, the IC50 is the concentration that inhibits the measured activity by half. As usually defined, the AC50 is the concentration at which the activity in the assay is half-maximal. Usually Ki stands for the equilibrium dissociation constant of an inhibitor or competing ligand from its target.

Chain of Glycogen synthase kinase-3 alpha (P49840 whole entry, canonical isoform): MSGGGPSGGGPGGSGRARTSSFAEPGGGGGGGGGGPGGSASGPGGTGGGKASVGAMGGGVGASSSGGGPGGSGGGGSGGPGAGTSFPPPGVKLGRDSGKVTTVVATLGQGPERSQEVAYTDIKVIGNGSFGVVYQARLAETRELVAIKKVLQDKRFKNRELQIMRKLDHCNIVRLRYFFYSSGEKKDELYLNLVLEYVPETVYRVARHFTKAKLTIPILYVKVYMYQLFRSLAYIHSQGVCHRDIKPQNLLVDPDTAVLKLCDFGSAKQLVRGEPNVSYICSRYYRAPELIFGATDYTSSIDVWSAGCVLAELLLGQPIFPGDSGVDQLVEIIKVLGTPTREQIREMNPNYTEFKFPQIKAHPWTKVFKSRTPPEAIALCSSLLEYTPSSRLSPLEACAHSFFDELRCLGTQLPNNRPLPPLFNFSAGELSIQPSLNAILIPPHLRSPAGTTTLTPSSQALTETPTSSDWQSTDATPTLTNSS
Chain of Glycogen synthase kinase-3 beta (P49841 whole entry): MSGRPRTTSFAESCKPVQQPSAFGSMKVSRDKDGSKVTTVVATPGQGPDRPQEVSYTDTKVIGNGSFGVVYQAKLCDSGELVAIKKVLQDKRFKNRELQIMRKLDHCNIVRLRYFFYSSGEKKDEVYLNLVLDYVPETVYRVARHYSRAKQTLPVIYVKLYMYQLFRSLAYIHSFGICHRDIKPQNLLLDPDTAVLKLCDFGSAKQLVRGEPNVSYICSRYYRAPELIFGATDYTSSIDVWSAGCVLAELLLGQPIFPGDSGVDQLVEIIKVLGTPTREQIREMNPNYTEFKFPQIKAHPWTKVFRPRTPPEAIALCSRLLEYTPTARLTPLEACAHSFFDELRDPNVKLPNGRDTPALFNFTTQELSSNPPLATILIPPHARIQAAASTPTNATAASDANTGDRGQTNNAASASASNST
Chain of Phosphorylase b kinase gamma catalytic chain, liver/testis isoform (P15735 whole entry, canonical isoform): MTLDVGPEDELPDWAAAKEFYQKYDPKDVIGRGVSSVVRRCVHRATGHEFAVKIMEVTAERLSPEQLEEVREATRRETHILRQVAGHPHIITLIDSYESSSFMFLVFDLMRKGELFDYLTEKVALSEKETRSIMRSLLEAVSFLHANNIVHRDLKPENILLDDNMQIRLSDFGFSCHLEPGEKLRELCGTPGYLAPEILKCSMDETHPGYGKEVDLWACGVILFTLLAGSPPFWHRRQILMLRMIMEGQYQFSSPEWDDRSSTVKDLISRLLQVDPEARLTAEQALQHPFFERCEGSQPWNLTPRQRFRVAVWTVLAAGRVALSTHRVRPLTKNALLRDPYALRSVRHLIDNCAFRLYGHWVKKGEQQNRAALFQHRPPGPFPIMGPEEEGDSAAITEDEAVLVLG
Chain of Beta Lactamase (Q932Y6 whole entry): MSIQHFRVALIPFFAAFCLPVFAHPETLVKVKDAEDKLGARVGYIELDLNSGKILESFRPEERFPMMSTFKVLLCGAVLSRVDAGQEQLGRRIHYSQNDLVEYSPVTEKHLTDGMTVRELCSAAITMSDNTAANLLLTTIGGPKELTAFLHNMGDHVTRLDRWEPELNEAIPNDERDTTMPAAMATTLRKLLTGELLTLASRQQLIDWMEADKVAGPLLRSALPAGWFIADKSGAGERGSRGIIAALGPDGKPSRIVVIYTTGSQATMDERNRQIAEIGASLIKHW
Chain of Dual specificity protein kinase CLK1 (P49759 whole entry): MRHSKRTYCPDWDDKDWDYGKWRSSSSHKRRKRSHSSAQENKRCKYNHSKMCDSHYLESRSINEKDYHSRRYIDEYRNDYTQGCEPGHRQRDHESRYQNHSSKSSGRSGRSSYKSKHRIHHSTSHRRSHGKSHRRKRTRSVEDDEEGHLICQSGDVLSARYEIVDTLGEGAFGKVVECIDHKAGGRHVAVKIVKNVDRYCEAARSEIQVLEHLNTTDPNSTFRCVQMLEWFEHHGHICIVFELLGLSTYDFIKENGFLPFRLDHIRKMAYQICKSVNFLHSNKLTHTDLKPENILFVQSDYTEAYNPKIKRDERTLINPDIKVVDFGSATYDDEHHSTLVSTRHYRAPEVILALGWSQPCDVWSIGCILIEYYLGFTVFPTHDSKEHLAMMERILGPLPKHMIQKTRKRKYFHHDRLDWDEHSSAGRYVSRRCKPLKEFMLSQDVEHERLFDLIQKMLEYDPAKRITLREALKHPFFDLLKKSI
Chain of Melanocortin receptor 4 (P32245 whole entry): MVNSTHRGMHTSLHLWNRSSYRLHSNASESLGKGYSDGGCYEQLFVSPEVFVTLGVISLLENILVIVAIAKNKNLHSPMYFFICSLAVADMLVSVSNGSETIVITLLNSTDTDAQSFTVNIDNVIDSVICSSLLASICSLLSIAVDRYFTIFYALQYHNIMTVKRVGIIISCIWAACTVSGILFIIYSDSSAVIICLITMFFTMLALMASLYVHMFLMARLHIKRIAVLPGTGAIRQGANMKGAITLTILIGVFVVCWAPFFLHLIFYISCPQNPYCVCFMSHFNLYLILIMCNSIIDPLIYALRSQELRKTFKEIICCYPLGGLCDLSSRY

Regarding `Cn1cccc1/C=C1\CCC/C(=C\c2cccn2C)C1=O`, the EC50 in experiment [1] is > 99 µM (inactive); in experiment [2], 23.9 µM (inactive). The IC50 at Beta Lactamase is 10.9 µM (inactive); in the experiment with CHO, > 49.8 µM (inactive).

As to `CCOC(=O)c1ccc2ncc(C(=O)OCC)c(Nc3ccc(N4CCOCC4)cc3)c2c1`, the IC50 is > 64.6 µM (inactive) in experiment [3] and 8.67 µM (active) on Melanocortin receptor 4. For the same compound, the values for the EC50 in [4] and in experiment [8] were 21.4 µM (active) and 18.5 µM (active), respectively. In addition, the AC50 in experiment [5] was 0.257 µM (active); in experiment [6], 1.16 µM (active); in experiment [7], 0.227 µM (active); in experiment [9] it was 3.56 µM (active).

As to `NC(=O)c1cccc2[nH]c(-c3ccncc3)nc12`, the Ki in experiment [10] was 1 µM (active).

Take `Cc1nc(=O)c2cc(CN(C)c3ccc(C(=O)N[C@@H](CCC(=O)O)C(=O)O)s3)ccc2[nH]1` [RALTITREXED]: the EC50 was > 150 µM (not active) in the experiment on BJ [11]; > 150 µM (inconclusive) in experiment [12]; 0.192 µM (inconclusive) with BJ [13]; > 150 µM (inconclusive) in the experiment on BJ [14]; > 133 µM (inactive) in the experiment on BJ [15].

Turning to `C[C@@H]1CN([C@H](C)CO)C(=O)c2cccc(NC(=O)Nc3ccccc3)c2O[C@H]1CN(C)S(=O)(=O)c1ccc(Cl)cc1`, the figures for the AC50 in the experiment on INS1 [16] and in the experiment on INS1 [17] were 41.6 µM (active) and 22.4 µM (active), respectively.
